Measurements as given in PubChem BioAssay (NCI).
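Method: 48-hour compound exposure of cells in 96-well plates, five concentrations, linear interpolation of endpoints. TGI denotes the concentration required for complete inhibition of growth.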 Where a SMILES comes first, the peptide text is derived from it. [ ]: non-standard residue; d: D form. The star is where a group is joined. Tyr(3-Br) = N[C@@H](Cc1ccc(O)c(Br)c1)C(=O)O; Boc = CC(C)(C)OC(=O)*

Legend:
Experiment in all cases: NCI anticancer screen, dose series, 48 h
KM12 colon = tested on: KM12 colon
SW-620 colon = tested on: SW-620 colon
MDA-MB-435 = tested on: MDA-MB-435
PC-3 prostate = tested on: PC-3 prostate
SN12C renal = tested on: SN12C renal
EKVX NSCLC = tested on: EKVX NSCLC
HCT-116 colon = tested on: HCT-116 colon
SF-268 CNS = tested on: SF-268 CNS
UO-31 renal = tested on: UO-31 renal
SK-MEL-28 melanoma = tested on: SK-MEL-28 melanoma
LOX IMVI melanoma = tested on: LOX IMVI melanoma
SF-539 CNS = tested on: SF-539 CNS
CCRF-CEM leukemia = tested on: CCRF-CEM leukemia
BT-549 breast = tested on: BT-549 breast
HCT-15 colon = tested on: HCT-15 colon
NCI-H226 lung = tested on: NCI-H226 lung
CAKI-1 renal = tested on: CAKI-1 renal
M14 melanoma = tested on: M14 melanoma
SK-OV-3 ovarian = tested on: SK-OV-3 ovarian
HT29 colon = tested on: HT29 colon

Row | Structure (SMILES) | TGI (KM12 colon) [µM] | TGI (SW-620 colon) [µM] | TGI (MDA-MB-435) [µM] | TGI (PC-3 prostate) [µM] | TGI (SN12C renal) [µM] | TGI (EKVX NSCLC) [µM] | TGI (HCT-116 colon) [µM] | TGI (SF-268 CNS) [µM] | TGI (UO-31 renal) [µM] | TGI (SK-MEL-28 melanoma) [µM] | TGI (LOX IMVI melanoma) [µM] | TGI (SF-539 CNS) [µM] | TGI (CCRF-CEM leukemia) [µM] | TGI (BT-549 breast) [µM] | TGI (HCT-15 colon) [µM] | TGI (NCI-H226 lung) [µM] | TGI (CAKI-1 renal) [µM] | TGI (M14 melanoma) [µM] | TGI (SK-OV-3 ovarian) [µM] | TGI (HT29 colon) [µM]
1 | Cc1cccc(CC(Cc2c(C)cccc2C(=O)O)C(=O)O)c1 (centres undefined) | > 100 | > 100 | > 100 | > 100 | > 100 | > 100 | > 100 | > 100 | > 100 | > 100 | > 100 | > 100 | > 100 | > 100 | > 100 | > 100 | > 100 | > 100 | > 100 | > 100
2 | COC(=O)[C@H](Cc1ccc(O)c(Br)c1)NC(=O)[C@H](Cc1ccc(O)cc1)NC(=O)OC(C)(C)C (Boc-Tyr-[Tyr(3-Br)]-OMe) | > 100 | > 100 | 53.5 | > 100 | > 100 | > 100 | > 100 | > 100 | > 100 | > 100 | 42.6 | 94.9 | 51.2 | 98.1 | 44 | > 100 | > 100 | > 100 | > 100 | > 100
3 | CC(C)OP(=O)(OC(C)C)/C(C#N)=C/c1ccco1 | > 100 | > 100 | > 100 | > 100 | > 100 | > 100 | > 100 | > 100 | 9.38 | > 100 | > 100 | > 100 | > 100 | > 100 | > 100 | > 100 | > 100 | > 100 | > 100 | > 100
4 | CC(C)(C)c1cc2c(O)c(c1)Cc1cc(C(C#N)(Cc3ccc4ccccc4c3)Cc3ccc4ccccc4c3)cc(c1O)Cc1cc(C(C)(C)C)cc(c1O)Cc1cc(C(C#N)(Cc3ccc4ccccc4c3)Cc3ccc4ccccc4c3)cc(c1O)C2 | > 100 | > 100 | > 100 | > 100 | > 100 | > 100 | > 100 | > 100 | > 100 | > 100 | > 100 | > 100 | > 100 | > 100 | > 100 | > 100 | > 100 | > 100 | > 100 | > 100
5 | O=C(N/N=C/c1ccc([N+](=O)[O-])o1)c1ccc(C(=O)N/N=C/c2ccc([N+](=O)[O-])o2)cc1 | > 100 | > 100 | 30.9 | > 100 | > 100 | > 100 | > 100 | > 100 | > 100 | 75.7 | 94.9 | 38.3 | 42.4 | > 100 | > 100 | > 100 | > 100 | > 100 | > 100 | > 100
6 | CN(C)Cc1cc(C(C)(C)C)ccc1-c1ccc(C(C)(C)C)cc1CN(C)C | > 100 | > 100 | > 100 | > 100 | > 100 | > 100 | > 100 | > 100 | > 100 | > 100 | > 100 | > 100 | > 100 | > 100 | > 100 | > 100 | > 100 | > 100 | > 100 | > 100
7 | Cc1cc(N=Nc2c(O)ccc3ccccc23)ccc1N=Nc1cccc([N+](C)(C)C)c1 | 17.3 | 46.9 | > 74.5 | 35.1 | > 80 | 62.1 | 75.5 | 57.1 | 29.7 | 62.3 | > 40.3 | 22.3 | > 34.3 | 15.7 | > 84.4 | 30.2 | 62.9 | 59.3 | > 75.3 | 25.1
8 | CCN(CC)CCCn1c(=O)c2ccccc2n2c3c(=O)n(C)c(=O)n(C)c3nc12 | 19.8 | 29.1 | 27.5 | 23 | 18.6 | 36.6 | 21.6 | 23 | 17.7 | 30.2 | 15.4 | 22 | 35 | 17.6 | 25.4 | 14.3 | 15.1 | 25.1 | 14.7 | 24
9 | O=C1NC(N2CCCCC2)=N/C1=C\c1cccs1 | > 100 | > 100 | > 100 | > 100 | > 100 | > 100 | > 100 | > 100 | > 100 | > 100 | > 100 | > 100 | > 100 | > 100 | > 100 | > 100 | > 100 | > 100 | > 100 | > 100
10 | C=C(C)CC1(O)C(=O)C(OCC)=C1OCC (centres undefined) | > 100 | > 100 | > 100 | > 100 | > 100 | > 100 | > 100 | > 100 | > 100 | > 100 | > 100 | > 100 | > 100 | > 100 | > 100 | > 100 | > 100 | > 100 | > 100 | > 100
11 | CCOC(=O)Cc1csc2[n+]1C(=O)/C(=C\c1cccc(Cl)c1Cl)S2 | 33.5 | 56.6 | > 100 | 37.7 | 37.8 | 50.7 | 25.7 | 80.2 | 27.1 | 50.9 | 42.2 | 47.1 | 37.8 | 49 | 31.9 | 32 | 48.7 | 85.1 | 43.1 | 41.2
12 | O=C(C[n+]1ccccc1)N/N=C(\Cc1nc2ccc([N+](=O)[O-])cc2[nH]c1=O)C(=O)Nc1cc(Cl)c(Cl)cc1Cl | > 100 | > 100 | > 100 | > 100 | > 100 | > 100 | > 100 | > 100 | > 100 | > 100 | > 100 | > 100 | > 100 | > 100 | > 100 | > 100 | > 100 | > 100 | > 100 | > 100
13 | CCOC(=O)C(C(=O)c1ccccc1C(=O)OC)=P(c1ccccc1)(c1ccccc1)c1ccccc1 | > 10 | > 10 | > 10 | > 10 | > 10 | > 10 | > 10 | > 10 | > 10 | > 10 | > 10 | > 10 | > 10 | > 10 | > 10 | > 10 | > 10 | > 10 | > 10 | > 10
14 | Cc1ccc2c(n1)C(=O)C=CC2=O | 46.2 | 8.76 | 33 | 31.9 | 29.8 | 15 | 4.12 | 42.7 | 10.4 | 15.3 | 12.6 | 35.3 | > 22.4 | 31.5 | 26.3 | 42.8 | 4.54 | 32.3 | 49.5 | 38
15 | COc1ccc(/C=C2\CCC(C)/C(=C\c3ccc(OC)c(OC)c3)C2=O)cc1OC (centres undefined) | 7.04 | > 100 | > 100 | 23.4 | 36.5 | 10.2 | 14.3 | 45.1 | 23.3 | 48.1 | 19.2 | 13.8 | 7.6 | 20.3 | 21.2 | 38.8 | 21.6 | 31.2 | 42.3 | 52.9
16 | CC(=O)NNc1nc(C)c(C(/C=C/c2ccc([N+](=O)[O-])cc2)=N/NC(N)=S)s1 | > 100 | > 100 | > 100 | > 100 | > 100 | > 100 | > 100 | > 100 | > 100 | > 100 | > 100 | > 100 | > 100 | > 100 | > 100 | > 100 | > 100 | > 100 | > 100 | > 100
17 | CC=CCOc1cc(NC(=S)OC(C)C)ccc1Cl (mixture of isomers) | 33.4 | 35.3 | 49.9 | 34.3 | 29 | 36.6 | 33.6 | 37.9 | 24.7 | 33.7 | 35.8 | 36.1 | 64.3 | 38.6 | 33.7 | 33 | 22.8 | 63.3 | 45.8 | 28.7
18 | CCOC(=O)c1sc(N/N=C2\NC(=O)/C(=C/c3ccc([N+](=O)[O-])cc3)S2)nc1C | 57.1 | > 100 | 77.3 | 91.4 | 88.2 | 43.4 | 36.7 | > 100 | 47 | > 100 | 46.1 | 40.7 | 35.4 | 74.5 | 48.5 | 55.1 | 60.5 | > 100 | > 100 | 51
19 | COc1ccc2c(c1)/C(=C\c1c(C)nc3sc(C)cn13)C(=O)N2 | 62.4 | > 100 | 0.458 | > 100 | > 100 | 44.2 | 25 | 53.7 | > 100 | > 100 | 61.2 | 9.58 | 2.32 | 45.8 | 74.6 | > 87.6 | > 100 | > 100 | 23 | 7.83
20 | COc1cc(C2SC(N)=Nc3c2c(C)nn3C(=O)c2ccccc2O)ccc1O (centres undefined) | > 10 | > 10 | > 10 | > 10 | > 10 | > 10 | > 10 | > 10 | > 10 | > 10 | > 10 | > 2.31 | > 10 | > 10 | > 10 | > 6.18 | > 10 | > 10 | > 10 | > 10
21 | COc1cc(C(=O)O[C@@H]2[C@@H](OC(=O)c3cc(OC)c(OC)c(OC)c3)[C@@H](OC)O[C@@H]3CO[C@@H](c4ccccc4)O[C@@H]23)cc(OC)c1OC | > 100 | > 100 | > 100 | > 100 | > 100 | > 100 | > 100 | > 100 | > 100 | > 100 | > 100 | > 100 | > 100 | > 100 | > 100 | > 100 | > 100 | > 100 | > 100 | > 100
22 | O=C1O[C@H]2[C@H](O)[C@@H](OC(=O)c3cc(O)c(O)c4c3[C@@H]3C1=CC(=O)C(O)(O)C3(O)O4)[C@H](OC(=O)c1cc(O)c(O)c(O)c1)O[C@@H]2CO (some centres undefined) | > 100 | > 100 | > 100 | > 100 | > 100 | > 100 | > 100 | > 100 | > 100 | > 100 | > 100 | – | 46.1 | > 100 | > 100 | > 100 | > 100 | > 100 | > 100 | > 100
